BindingDB's records for doi:10.1016/j.ejmech.2022.114684 (Shanghai Institute of Materia Medica, 2022)

biological target: T1, Transcriptional coactivator YAP1 (Homo sapiens, UniProt P46937); assay: Inhibition of YAP (unknown origin) incubated for 24 hrs by Promega Dual-Luciferase Reporter Assay
T1 sequence (P46937 whole entry): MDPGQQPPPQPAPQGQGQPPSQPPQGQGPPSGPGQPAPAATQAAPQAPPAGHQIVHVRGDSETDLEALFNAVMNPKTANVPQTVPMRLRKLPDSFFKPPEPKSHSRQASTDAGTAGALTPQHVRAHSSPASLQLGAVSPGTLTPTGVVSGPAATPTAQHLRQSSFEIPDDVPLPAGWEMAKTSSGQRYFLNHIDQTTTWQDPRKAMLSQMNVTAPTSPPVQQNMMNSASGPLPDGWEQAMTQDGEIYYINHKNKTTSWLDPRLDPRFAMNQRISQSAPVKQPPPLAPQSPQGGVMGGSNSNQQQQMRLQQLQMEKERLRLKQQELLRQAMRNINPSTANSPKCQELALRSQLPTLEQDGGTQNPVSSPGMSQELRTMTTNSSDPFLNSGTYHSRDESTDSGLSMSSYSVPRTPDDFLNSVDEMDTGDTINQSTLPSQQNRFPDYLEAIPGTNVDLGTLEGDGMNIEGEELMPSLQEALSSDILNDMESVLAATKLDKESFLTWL

Row | IC50 [nM] | Structure (SMILES)
1 | 1 | CNS(=O)(=O)c1ccc(Nc2ccc(C(F)(F)F)cc2)c(-c2cn(C)cn2)c1
2 | 454 | COC(=O)c1cc(S(N)(=O)=O)ccc1NC1CCCCC1
3 | 391 | CC(NC(=O)c1cc2nc(N(C)C)n(-c3ccc(Br)cc3)c2s1)c1ccccn1 (stereo unspecified)

biological target: T1, Transcriptional coactivator YAP1; assay: Inhibition of YAP in HEK293T cells incubated for 24 hrs by Promega Dual-Luciferase Reporter Assay

Row | IC50 [nM] | Structure (SMILES)
4 | < 100 | CC(C)NC(=O)c1ccc2c(Oc3cccc(Cl)c3)cccc2c1 [5-(3-chlorophenoxy)-N-isopropyl-2-naphthamide]
5 | < 100 | N#CCNC(=O)c1ccc2c(Oc3ccc(C(F)(F)F)cc3)cccc2c1 [N-(cyanomethyl)-5-(4-(trifluoromethyl)phenoxy)-2-naphthamid]
6 | < 100 | CS(=O)(=O)NC(=O)c1ccc2c(Oc3ccc(C(F)(F)F)cc3)cccc2c1 [N-(methylsulfonyl)-5-(4-(trifluoromethyl)phenoxy)-2-naphthamide]
